# According to PubChem BioAssay AID328 (DTP/NCI, 2004):
# Values joined by “and” are separate entries in the source; they are usually repeats but may differ in a detail not shown here. Equal entries are not always repeated. Inconclusive results and toxic doses are left out.
# System: BDF1 mice, P388 leukemia ip, median survival T/C
# Assay: NCI In Vivo Anticancer Drug Screen. Data for tumor model P388 Leukemia (intraperitoneal) in B6D2F1 (BDF1) mice
# Details: endpoint: median survival time, higher = longer survival
# How it was run: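 Steps: implant the tumour, treat one group with compound and another with vehicle, record survival, then divide treated by control.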
# [1] = dose: 100.0 mg/kg/injection, schedule: Q01DX009 (ip), vehicle: saline with Tween-80
# [2] = dose: 200.0 mg/kg/injection, schedule: Q01DX009 (ip), vehicle: saline with Tween-80
# [3] = dose: 400.0 mg/kg/injection, schedule: Q01DX009 (ip), vehicle: saline with Tween-80
# [4] = dose: 12.5 mg/kg/injection, schedule: Q01DX009 (ip), vehicle: water
# [5] = dose: 25.0 mg/kg/injection, schedule: Q01DX009 (ip), vehicle: water
compound,measurement,setting,value
CC(=O)OCC(Br)C(Br)COC(C)=O (stereo not given),T/C,[1],109 % of control
same,T/C,[2],109 % of control
same,T/C,[3],109 % of control
Cn1cc(/C=C\C(=O)O)c2nccnc21,T/C,"dose: 6.25 mg/kg/injection, schedule: Q01DX009 (ip), vehicle: water",96 % of control
same,T/C,[4],90 % of control
same,T/C,[5],90 % of control
same,T/C,"dose: 100.0 mg/kg/injection, schedule: Q01DX009 (ip), vehicle: water",102 % of control
Cc1cc(C)c2c(=O)[nH][nH]c2n1,T/C,[1],96 % of control
same,T/C,[2],100 % of control
same,T/C,[3],94 % of control
C[n+]1cc2ccccc2c2ccccc21,T/C,[4],95 % of control and 109 % of control
same,T/C,"dose: 12.5 mg/kg/injection, schedule: Q04DX003 (ip), vehicle: water",105 % of control
same,T/C,"dose: 15.0 mg/kg/injection, schedule: Q01DX009 (ip), vehicle: water",108 % of control
same,T/C,[5],101 % of control and 115 % of control
same,T/C,"dose: 25.0 mg/kg/injection, schedule: Q04DX003 (ip), vehicle: water",114 % of control
O=C(CNC(=O)Nc1ccc(C2=NCCN2)cc1)Nc1ccc(C2=NCCN2)cc1,T/C,"dose: 12.5 mg/kg/injection, schedule: Q01DX009 (ip), vehicle: saline with Tween-80",104 % of control
same,T/C,"dose: 12.5 mg/kg/injection, schedule: Q04DX003 (ip), vehicle: saline with Tween-80",100 % of control
same,T/C,"dose: 22.0 mg/kg/injection, schedule: Q01DX009 (ip), vehicle: saline with Tween-80",100 % of control
same,T/C,"dose: 25.0 mg/kg/injection, schedule: Q01DX009 (ip), vehicle: saline with Tween-80",120 % of control
same,T/C,"dose: 25.0 mg/kg/injection, schedule: Q04DX003 (ip), vehicle: saline with Tween-80",118 % of control
same,T/C,"dose: 33.0 mg/kg/injection, schedule: Q01DX009 (ip), vehicle: saline with Tween-80",114 % of control
same,T/C,"dose: 50.0 mg/kg/injection, schedule: Q01DX009 (ip), vehicle: saline with Tween-80",166 % of control
same,T/C,"dose: 50.0 mg/kg/injection, schedule: Q04DX003 (ip), vehicle: saline with Tween-80",109 % of control
same,T/C,"dose: 75.0 mg/kg/injection, schedule: Q01DX009 (ip), vehicle: saline with Tween-80",153 % of control
C=C1C[C@H]2[C@@H]3C=C(C)C4=CC(=O)CC[C@]4(C)[C@H]3CC[C@]2(C)[C@@]1(OC(C)=O)C(C)=O,T/C,"dose: 62.5 mg/kg/injection, schedule: Q01DX010 (sc), vehicle: steriod suspending solution",105 % of control
same,T/C,"dose: 125.0 mg/kg/injection, schedule: Q01DX010 (sc), vehicle: steriod suspending solution",110 % of control
same,T/C,"dose: 250.0 mg/kg/injection, schedule: Q01DX010 (sc), vehicle: steriod suspending solution",100 % of control
same,T/C,"dose: 500.0 mg/kg/injection, schedule: Q01DX010 (sc), vehicle: steriod suspending solution",110 % of control
C1CNCC[N-]1.C1CNCC[N-]1.[Cl][Pt+2]([Cl])([Cl])[Cl],T/C,"dose: 3.12 mg/kg/injection, schedule: Q04DX003 (ip), vehicle: saline",106 % of control and 115 % of control
same,T/C,"dose: 6.25 mg/kg/injection, schedule: Q01DX009 (ip), vehicle: saline",106 % of control
same,T/C,"dose: 6.25 mg/kg/injection, schedule: Q04DX003 (ip), vehicle: saline",100 % of control and 115 % of control
same,T/C,"dose: 12.5 mg/kg/injection, schedule: Q01DX009 (ip), vehicle: Klucel (hydroxypropylcellulose) (HPC)",108 % of control
same,T/C,"dose: 12.5 mg/kg/injection, schedule: Q04DX003 (ip), vehicle: saline",93 % of control and 98 % of control and 100 % of control
same,T/C,"dose: 25.0 mg/kg/injection, schedule: Q01DX009 (ip), vehicle: Klucel (hydroxypropylcellulose) (HPC)",120 % of control
same,T/C,"dose: 25.0 mg/kg/injection, schedule: Q04DX003 (ip), vehicle: saline",108 % of control
CCOCCC(=O)O,T/C,"dose: 100.0 mg/kg/injection, schedule: Q04DX003 (ip), vehicle: saline",104 % of control
same,T/C,"dose: 200.0 mg/kg/injection, schedule: Q04DX003 (ip), vehicle: saline",109 % of control
same,T/C,"dose: 400.0 mg/kg/injection, schedule: Q04DX003 (ip), vehicle: saline",90 % of control
O=C(Nc1ccc(Nc2ccncc2)cc1)c1ccc([N+](=O)[O-])cc1,T/C,"dose: 100.0 mg/kg/injection, schedule: Q04DX003 (ip), vehicle: Klucel (hydroxypropylcellulose) (HPC)",90 % of control
same,T/C,"dose: 200.0 mg/kg/injection, schedule: Q04DX003 (ip), vehicle: Klucel (hydroxypropylcellulose) (HPC)",90 % of control
same,T/C,"dose: 400.0 mg/kg/injection, schedule: Q04DX003 (ip), vehicle: Klucel (hydroxypropylcellulose) (HPC)",118 % of control
NC(N)=NCCNC(=O)C1CCC(N)C1 (stereo not given),T/C,"dose: 0.08 mg/kg/injection, schedule: Q01DX009 (ip), vehicle: saline",97 % of control
same,T/C,"dose: 0.16 mg/kg/injection, schedule: Q01DX009 (ip), vehicle: saline",97 % of control
same,T/C,"dose: 0.32 mg/kg/injection, schedule: Q01DX009 (ip), vehicle: saline",99 % of control
same,T/C,"dose: 0.63 mg/kg/injection, schedule: Q01DX009 (ip), vehicle: saline",100 % of control
